Assay results published in patent publication US7862804B2, “Admistration of C-glycoside compounds for depigmenting/whitening the skin” (Loreal, priority 2005, dated 2011).

System: actinic lentigines
Assay: Double blind clinical study versus placebo; dermatologist's clinical evaluation of actinic lentigines
Assay type: in vivo, human
Experimental: A clinical evaluation of actinic lentigines was carried out by a dermatologist at the beginning and at the end of the study according to a scale with 7 levels, including 4 main levels: • 0—absent; • 1—few blemishes; • 2—many blemishes; • 3—a great many blemishes; and 3 intermediate levels (0.5; 1.5; 2.5).
The women applied C-β-D-xylopyranoside-2-hydroxypropane at a concentration of 10% by weight with respect to the total weight of the composition in a proportion of 2 mg/cm^2 or the placebo twice daily for 3 months (98 days) to the pre-marked regions.

SMILES: CC(O)C[C@@H]1OC[C@@H](O)[C@H](O)[C@H]1O (stereo partly drawn) [C-β-D-xylopyranoside-2-hydroxypropane]
- mean score of actinic lentigines on the treated side, end of study (scale with 7 levels, 0-3, 10% by weight, 2 mg/cm^2 topical twice daily for 3 months (98 days), p=0.08): 0.93+/−0.68
- mean score of actinic lentigines on the treated side, before treatment (scale with 7 levels, 0 absent to 3 a great many blemishes, 15 women, phototype III, baseline of treated side): 1.07+/−0.62
- subjects exhibiting a lower score on the treated side, end of study (treated side versus placebo side, after 3 months (98 days) of 10% topical twice daily): 54%
- subjects exhibiting a lower score on the treated side, at the beginning of the study (treated side versus placebo side, baseline): 13%
